From patent publication US12606538B2, “Benzo[b]selenophene sting regulator, preparation method and use thereof” (CHINA PHARMACEUTICAL UNIVERSITY, priority 2021, dated 2026)

How the values were obtained:
Format in all cases: cell-based
THP1-dual cells = test: Luciferase assay based on THP1-dual cells; conditions: final concentration of compound 10 μL (so in the source), 24 h at 37° C.
Method: (§1) THP1-dual™ (Invivogen: thpd-nfis) cells or RAW-Lucia™ (Invivogen: rawl-isg) cells were diluted using a culture medium, and 180 μL of cell suspension was sucked and inoculated in a 96-well plate, such that each well contain 1×10^5 cells. 20 μL of a compound to be tested was added into the 96-well plate (the final concentration of said compound was […], and the final volume of each well was […]) and cultured at 37° C. for 24 h. 10 μL of supernatant was sucked into a new 96-well white plate, and 50 μL of a QUANT-Luc reagent was added. After full and even mixing, a microplate reader was used immediately for determination. There were three repeated wells set in the assay. The test result was represented as agitation fold and calculated by (test well−blank well)/(negative well−blank well). The test result was in the following tablet, with 2′,3′-cGAMP as a positive control, where *** represented an agitation fold of 20 or more, ** represented an agitation fold of 10 to 20, and * represented an agitation fold of 1 to 10.

RAW-Lucia cells = test: Luciferase assay based on RAW-Lucia cells; conditions: 24 h at 37° C.
Method: as §1

THP1 cells = test: Interferon β induction assay based on THP1 cells (ELISA); conditions: Homo sapiens, THP-1, compound 20 μM, 3.5 h, read-out: Secretion of IFNβ in THP1 cells, effect relative to 2′,3′-cGAMP at 20 μM (%)
Method: Secreted cytokine IFNβ was determined by ELISA. THP1 cells were inoculated in a 96-well plate (there was no serum contained in an RPMI 1640 medium), such that the number of cells in each well ranged from 5×10^5 to 7×10^5. A DMSO stock solution of 10 mM was prepared from a compound to be tested, diluted with a culture medium to a target concentration to be added into the 96-well plate containing cells (the final concentration of said compound was 20 μM, and the final volume of each well was 200 μL), and cultured at 37° C. in 5% CO2 for 3.5 h. The cells were collected at 4° C. and centrifuged at 1,000 rpm for 20 mins, and supernate was collected for ELISA determination. There were three repeated wells set in the assay. The result was shown in the following tablet, with 2′,3′-cGAMP as a positive control, where the test result was represented as a percentage of activity relative to 2′,3′-cGAMP at a concentration of 20 μM.

Structure (SMILES) | Agitation activity in luciferase assay, THP1-dual (agitation fold) (THP1-dual cells) | Agitation activity in luciferase assay, RAW-Lucia (agitation fold) (RAW-Lucia cells) | Emax at 20 µM (THP1 cells) [%]
COc1cc2cc(C(=O)C[C@@H](C)C(=O)O)[se]c2cc1OC [I-3, R-4-(5,6-dimethoxybenzo[b]selenophene-2-yl)-2-methyl-4-oxo-butanoic acid] | *** (*** represented an agitation fold of 20 or more) | *** (*** represented an agitation fold of 20 or more) | 234
COc1cc2cc(C(=O)C[C@H](C)C(=O)O)[se]c2cc1OC [I-4, S-4-(5,6-dimethoxybenzo[b]selenophene-2-yl)-2-methyl-4-oxo-butanoic acid] | *** (*** represented an agitation fold of 20 or more) | *** (*** represented an agitation fold of 20 or more) | 201
COc1ccc2[se]c(C(=O)CC(C)C(=O)O)cc2c1 (stereo not drawn) [I-5] | * (* represented an agitation fold of 1 to 10) | * (* represented an agitation fold of 1 to 10) | 59
COc1ccc2cc(C(=O)CC(C)C(=O)O)[se]c2c1 (stereo not drawn) [I-6, 4-(6-dimethoxybenzo[b]selenophene-2-yl)-2-methyl-4-oxo-butanoic acid] | * (* represented an agitation fold of 1 to 10) | * (* represented an agitation fold of 1 to 10) | 15
COc1cc2[se]c(C(=O)CC(C)C(=O)O)cc2cc1O (stereo not drawn) [I-7, 4-(5-hydroxyl-6-dimethoxybenzo[b]selenophene-2-yl)-2-methyl-4-oxo-butanoic acid] | ** (** represented an agitation fold of 10 to 20) | * (* represented an agitation fold of 1 to 10) | 75
CC(CC(=O)c1cc2cc3c(cc2[se]1)OCO3)C(=O)O (stereo not drawn) [I-8, 2-methyl-4-oxo-4-(selenophene[2′,3′:4,5]benzo[1,2-d][1,3]dioxo-6-yl)butanoic acid] | * (* represented an agitation fold of 1 to 10) | * (* represented an agitation fold of 1 to 10) | 20
CCOc1cc2cc(C(=O)CC(C)C(=O)O)[se]c2cc1OC (stereo not drawn) [I-9, 4-(5-ethoxy-6-dimethoxybenzo[b]selenophene-2-yl)-2-methyl-4-oxo-butanoic acid] | ** (** represented an agitation fold of 10 to 20) | ** (** represented an agitation fold of 10 to 20) | 96
COc1cc2[se]c(C(=O)CC(C)C(=O)O)cc2cc1OC(C)C (stereo not drawn) [I-10, 4-(5-isopropoxy-6-dimethoxybenzo[b]selenophene-2-yl)-2-methyl-4-oxo-butanoic acid] | ** (** represented an agitation fold of 10 to 20) | ** (** represented an agitation fold of 10 to 20) | 91
CCOC(=O)C(C)CC(=O)c1cc2cc(OC)c(OC)cc2[se]1 (stereo not drawn) [I-11, 4-(5,6-dimethoxybenzo[b]selenophene-2-yl)-2-methyl-4-oxo-ethyl butyrate] | * (* represented an agitation fold of 1 to 10) | ** (** represented an agitation fold of 10 to 20) | 9
COc1cc2cc(C(=O)CC(C)C(=O)NO)[se]c2cc1OC (stereo not drawn) [I-12, 4-(5,6-dimethoxybenzo[b]selenophene-2-yl)-N-hydroxyl-2-methyl-4-oxo-butyramide] | * (* represented an agitation fold of 1 to 10) | * (* represented an agitation fold of 1 to 10) | 11
COc1cc2cc(C(=O)CC(C)C(N)=O)[se]c2cc1OC (stereo not drawn) [I-13, 4-(5,6-dimethoxybenzo[b]selenophene-2-yl)-2-methyl-4-oxo-butyramide] | * (* represented an agitation fold of 1 to 10) | * (* represented an agitation fold of 1 to 10) | 6
CC[C@H](CC(=O)c1cc2cc(OC)c(OC)cc2[se]1)C(=O)O [I-15, R-4-(5,6-dimethoxybenzo[b]selenophene-2-yl)-2-ethyl-4-oxo-butanoic acid] | *** (*** represented an agitation fold of 20 or more) | *** (*** represented an agitation fold of 20 or more) | 2
CC[C@@H](CC(=O)c1cc2cc(OC)c(OC)cc2[se]1)C(=O)O [I-16, S-4-(5,6-dimethoxybenzo[b]selenophene-2-yl)-2-ethyl-4-oxo-butanoic acid] | *** (*** represented an agitation fold of 20 or more) | *** (*** represented an agitation fold of 20 or more) | 281
COc1cc2cc(C(=O)CC(C(=O)O)C(C)C)[se]c2cc1OC (stereo not drawn) [I-17, 4-(5,6-dimethoxybenzo[b]selenophene-2-yl)-2-isopropyl-4-oxo-butanoic acid] | *** (*** represented an agitation fold of 20 or more) | ** (** represented an agitation fold of 10 to 20) | 293
COc1cc2cc(C(=O)CC(C(=O)O)C3CC3)[se]c2cc1OC (stereo not drawn) [I-18, 2-cyclopropyl-4-(5,6-dimethoxybenzo[b]selenophene-2-yl)-4-oxo-butanoic acid] | *** (*** represented an agitation fold of 20 or more) | ** (** represented an agitation fold of 10 to 20) | 277
COCC(CC(=O)c1cc2cc(OC)c(OC)cc2[se]1)C(=O)O (stereo not drawn) [I-19, 4-(5,6-dimethoxybenzo[b]selenophene-2-yl)-2-(methoxymethyl)-4-oxo-butanoic acid] | ** (** represented an agitation fold of 10 to 20) | ** (** represented an agitation fold of 10 to 20) | 107
CCCCC(CC(=O)c1cc2cc(OC)c(OC)cc2[se]1)C(=O)O (stereo not drawn) [I-20, 2-(2-(5,6-dimethoxybenzo[b]selenophene-2-yl)-2-oxo-ethyl) hexanoic acid] | ** (** represented an agitation fold of 10 to 20) | ** (** represented an agitation fold of 10 to 20) | 132
COc1cc2cc(C(=O)CCCC(=O)O)[se]c2cc1OC [I-21, 5-(5,6-dimethoxybenzo[b]selenophene-2-yl)-5-oxo-pentanoic acid] | * (* represented an agitation fold of 1 to 10) | * (* represented an agitation fold of 1 to 10) | 12
COc1cc2cc(C(=O)C3CC3C(=O)O)[se]c2cc1OC (stereo not drawn) [I-22] | ** (** represented an agitation fold of 10 to 20) | ** (** represented an agitation fold of 10 to 20) | 115
